Experimental data: PubChem BioAssay AID588401 (Johns Hopkins Ion Channel Center, 2011)
Activity calls are given as the source filed them.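 The calls were made as follows: active = blocks the choline transporter at some tested dose and yields a fitted dose response curve; inconclusive = no clear call, values can overlap the other calls; inactive = no blocking at any dose or no curve.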

What follows are compounds tested against High affinity choline transporter 1 (Homo sapiens) (UniProt Q9GZV3) (assay: CHT inhibitors, dose response, cell-based, 10-point CRC, membrane potential dye (AID 588401)). Conditions: HEK293-CHT, choline-induced depolarization, at 25 µM (top of the series), cells express LV-AA mutant CHT.
High affinity choline transporter 1 (Homo sapiens), sequence (Q9GZV3 whole entry, looked up): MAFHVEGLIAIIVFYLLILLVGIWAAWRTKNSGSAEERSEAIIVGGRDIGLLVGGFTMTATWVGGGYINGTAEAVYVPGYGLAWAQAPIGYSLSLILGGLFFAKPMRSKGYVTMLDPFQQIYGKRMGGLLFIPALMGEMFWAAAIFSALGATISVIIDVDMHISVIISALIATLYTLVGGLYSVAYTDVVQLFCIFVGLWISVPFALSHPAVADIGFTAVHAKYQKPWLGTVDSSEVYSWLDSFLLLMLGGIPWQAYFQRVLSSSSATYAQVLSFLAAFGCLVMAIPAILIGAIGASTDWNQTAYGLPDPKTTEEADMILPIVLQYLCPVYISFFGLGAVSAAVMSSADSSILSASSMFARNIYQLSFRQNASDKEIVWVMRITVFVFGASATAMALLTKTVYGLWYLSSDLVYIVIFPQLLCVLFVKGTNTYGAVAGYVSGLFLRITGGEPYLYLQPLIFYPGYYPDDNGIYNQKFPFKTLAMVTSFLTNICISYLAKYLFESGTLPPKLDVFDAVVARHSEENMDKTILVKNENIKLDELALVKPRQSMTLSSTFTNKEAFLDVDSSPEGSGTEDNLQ

Inhibition (negative values = inhibition), inactive:
CCOCCCNC(=O)/C(C#N)=C/c1ccc([N+](=O)[O-])o1
Cc1ccc(C(=O)CSc2nnc(-c3ccco3)n2C)cc1
Cc1cc(-c2ccccc2)n(-c2ccc(C(=O)N3CCN(c4ncccn4)CC3)cc2)n1
Oc1cccc(C(O)CNCc2ccc(OCc3ccc(Cl)cc3Cl)cc2)c1 (stereo not given)
Cc1ccc(S(=O)(=O)N2[C@@H](c3ccc(Cl)cc3)C(C(=O)O)=CC[C@H]2c2ccc(Cl)c(Cl)c2)cc1
O=C(CSc1nc2ccccc2[nH]1)c1ccc2c(c1)OCO2
O=c1c2cc(Br)ccc2nc(-c2ccc(Cl)cc2)n1O
O=C1NC(c2ccccc2)=C(c2ccc3ccccc3n2)C(c2ccncc2)N1 (stereo not given)
Cc1ccc(-c2cccc(CN3CCN(C(C)C)C(CCO)C3)c2)o1 (stereo not given)
c1ccc(CN2CCN(c3nc4ccccc4n4cnnc34)CC2)cc1
O=C(CSc1nnc(-c2ccco2)n1Cc1ccco1)NCc1cccs1
CCOC(=O)c1sc(NC(=O)CCN2C(=O)c3cccc([N+](=O)[O-])c3C2=O)c(C(=O)OCC)c1C
O=C(CSc1nnc(-c2ccncc2)n1Cc1ccco1)c1ccc(Cl)cc1
COc1ccc(-c2csc(Cc3nnc4n3CCCCC4)n2)cc1
Cc1nn2c(N3CCN(C)CC3)c3c(nc2c1-c1ccccc1)CCCC3
Cc1cccc(C(=O)NNC(=S)NC(=O)c2ccccc2)c1
Cc1ccc(S(=O)(=O)N2[C@@H](c3ccc(Cl)cc3)C(C(=O)O)=CC[C@H]2c2ccc(Cl)cc2)cc1
O=C(COC(=O)CCCSc1nc2ccccc2[nH]1)NC(=O)NC1CCCC1
CN(CCC#N)C(=O)COC(=O)c1ccccc1C(=O)c1ccc(Cl)c([N+](=O)[O-])c1
COc1ccc(OC)c(/C=C2\SC(=S)N(NS(=O)(=O)c3ccccc3)C2=O)c1
C/C(=N\NS(=O)(=O)c1ccc(Cl)c([N+](=O)[O-])c1)c1cc2ccccc2o1
O=S(=O)(c1ccccc1F)N1CCN(CCc2ccccc2)CC1
COc1cc(/C=C2/C(=O)c3cccc([N+](=O)[O-])c3C2=O)c(Br)cc1O
O=S(=O)(c1ccc(N2CCCC2)nc1)N1CCCC1
O=C(Nc1ccccc1C(=O)NCCCN1CCOCC1)c1ccc(F)cc1
O=C1ON=C(c2ccccc2)/C1=C/c1ccc(O)c(O)c1
Cc1ccc(-n2cc(CN3CCN(Cc4nccn4C)CC3)c(-c3ccc(F)cc3)n2)cc1
CC(C)C(=O)Nc1cccc(NC(=O)c2ccc(Cl)cc2Cl)c1
Cc1cccc(OCC(O)Cn2c(=N)n(Cc3ccccc3)c3ccccc32)c1 (stereo not given)
CCOC(=O)c1cccc(NC(=O)CSc2nnc(C)n2Cc2ccccc2)c1
CC#CCN(CC#CC)S(=O)(=O)c1ccc(-n2cnnn2)c(OC)c1
O=[N+]([O-])c1cc(Cc2ccccc2)cc(C=Nc2ccc(N3CCOCC3)cc2)c1O
CCOC(=O)N1CCC(NC(=O)C2CCCN(Cc3nc(-c4cccc(Cl)c4)oc3C)C2)CC1 (stereo not given)
CN(Cc1cccs1)c1ncnc2sccc12
CC1CCCCC1NC(=O)Cn1nnc(-c2ccc(Cl)cc2)n1 (stereo not given)
